Measurements taken from ChEMBL document CHEMBL3886696, “Compounds and methods for treating ocular diseases” (2016).

Columns and labels:
[1] = target: T1, Prostaglandin E2 receptor EP2 subtype (Homo sapiens, UniProt P43116); experiment: (§1) cAMP Assay: EP4 receptors couple to Gs and mediate elevations in cAMP concentration, although they do participate in other pathways as well. There are some redundancies in function between EP2 and EP4 receptors. For example, both receptors induce PGE2-mediated RANKL through cAMP.; assay type: functional
[2] = target: T2, Prostaglandin E2 receptor EP4 subtype (Homo sapiens, UniProt P35408); experiment: as §1; assay type: functional
[3] = target: T1, Prostaglandin E2 receptor EP2 subtype; experiment: (§2) Radioligand Binding: HEK-293 cells stably expressing the human or feline FP receptor, or EP1, EP2, or EP4 receptors were washed with TME buffer, scraped from the bottom of the flasks, and homogenized for 30 sec using a Brinkman PT 10/35 polytron. TME buffer was added to achieve a final 40 ml volume in the centrifuge tubes (the composition of TME is 100 mM TRIS base, 20 mM MgCl2, […]; 10N HCl is added to achieve a pH of 7.4). The cell homogenate was centrifuged at 19000 r.p.m. for 20 min at 4 °C. using a Beckman Ti-60 rotor. The resultant pellet was resuspended in TME buffer to give a final 1 mg/ml protein concentration, as determined by Biorad assay. Radioligand binding competition assays vs. [3H-]17-phenyl PGF2a (5 nM) were performed in a 100 μl volume for 60 min. Binding reactions were started by adding plasma membrane fraction. The reaction was terminated by the addition of 4 ml ice-cold TRIS-HCl buffer and rapid filtration through glass fiber GF/B filters using a Brandel cell harvester. The filters were washed 3 times with ice-cold buffer and oven dried for one hour. [3H−] PGE2 (specific activity 180 Ci mmol) was used as the radioligand for EP receptors. [3H] 17-phenyl PGF2a was employed for FP receptor binding studies. Binding studies employing EP1, EP2, EP4 and FP receptors were performed in duplicate in at least three separate experiments. A 200 μl assay volume was used. […]; assay type: cell-free
[4] = target: T2, Prostaglandin E2 receptor EP4 subtype; experiment: as §2; assay type: cell-free

T1 sequence (P43116 whole entry): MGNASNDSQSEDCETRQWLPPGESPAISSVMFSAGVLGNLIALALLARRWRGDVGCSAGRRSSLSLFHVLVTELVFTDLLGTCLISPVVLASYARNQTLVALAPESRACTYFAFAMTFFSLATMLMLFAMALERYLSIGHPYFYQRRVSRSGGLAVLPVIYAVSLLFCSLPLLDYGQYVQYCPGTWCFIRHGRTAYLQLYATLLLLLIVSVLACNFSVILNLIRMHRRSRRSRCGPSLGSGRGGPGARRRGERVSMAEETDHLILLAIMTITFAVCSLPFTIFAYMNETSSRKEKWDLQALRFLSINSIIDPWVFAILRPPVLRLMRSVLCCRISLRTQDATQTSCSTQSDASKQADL
T2 sequence (P35408 whole entry): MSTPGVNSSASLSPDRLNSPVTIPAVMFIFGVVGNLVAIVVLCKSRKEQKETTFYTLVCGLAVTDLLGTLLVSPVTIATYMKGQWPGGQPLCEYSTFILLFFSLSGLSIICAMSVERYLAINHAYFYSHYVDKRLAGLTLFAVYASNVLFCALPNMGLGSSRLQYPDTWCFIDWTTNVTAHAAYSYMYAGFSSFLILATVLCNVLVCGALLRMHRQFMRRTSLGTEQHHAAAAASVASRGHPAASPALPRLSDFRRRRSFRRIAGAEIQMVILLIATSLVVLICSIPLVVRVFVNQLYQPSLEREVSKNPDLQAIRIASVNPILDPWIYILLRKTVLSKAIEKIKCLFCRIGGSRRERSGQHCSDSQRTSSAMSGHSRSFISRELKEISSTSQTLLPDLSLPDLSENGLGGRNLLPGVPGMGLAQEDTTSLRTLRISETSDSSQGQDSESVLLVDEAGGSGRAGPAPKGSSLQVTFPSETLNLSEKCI

- EC50 [1]: 38 nM
- EC50 [2]: 1 nM
- EC50 [3]: 96 nM
- EC50 [4]: 53 nM
SMILES: O=C(O)c1ccc(CCCN2[C@@H](/C=C/C(O)Cc3cccc(OC(F)(F)F)c3)CCS2(=O)=O)s1 (some centres undefined)
